From article PMC10961089, “Epidermal growth factor receptor inhibition potentiates chemotherapeutics‐mediated sensitization of metastatic breast cancer stem cells” (Cancer Reports, 2024)

Legend:
[1] = test system: BAX, BCL‐2, cytochrome‐C in MDA‐MB‐231 cells; assay: Immunoblot analysis of apoptotic markers; format: cell-based, human; settings: MDA-MB-231, doxorubicin 0.01 μM + compound 5 μM
Method: MDA‐MB‐231 cells were subjected to the treatment of doxorubicin (0.01 μM) in the absence/presence of the selected potent compounds—1c, 1e, 1g, 1h, 1j, and 1k at 5 μM concentration or a standard EGFR inhibitor, PD153035 (10 μM) for 48 h. Separately, TNBC cells—MDA‐MB‐231 were also treated with doxorubicin (0.01 and/or 0.1 μM) in the absence/presence of potent EGFR inhibitor/compound, 1e at 5 μM concentration or a standard EGFR inhibitor, PD153035 (10 μM) for 48 h. Cells were then lysed to isolate the total protein and subjected to SDS‐PAGE, transferred onto a poly (vinylidene difluoride) membrane, probing with primary antibodies (Table ST2) against apoptotic markers—BAX, BCL‐2, cytochrome‐C, and β‐actin followed by incubation with horseradish peroxidase‐conjugated secondary antibodies (CST, Waltham, MA, USA) as described previously.[6] Visualization was performed using G: Box (Syngene, Cambridge, UK).

HEK‐293 = assay: MTT cytotoxicity assay in control cell line HEK-293; format: cell-based, human; settings: compound alone, non-tumoral control cell line, read-out: IC50 (μM) in HEK‐293 (mean ± SD)
Method: TNBC cell lines (ER^−, PR^−, HER2^−)—MDA‐MB‐231 (ATCC HTB‐26) and MDA‐MB‐468 (ATCC HTB‐132) were procured from ATCC and cultured in Roswell Park Memorial Institute Media (RPMI‐1640) and Dulbecco's Modified Eagle's Medium (DMEM), respectively, supplemented with 10% FBS and 1% Penicillin–Streptomycin solution. Cells were maintained at 5% CO2 at 37°C in a humid atmosphere.[6], [26] The control cell line, Human Embryonic Kidney—HEK‐293 (ATCC CRL‐3216) was also obtained from ATCC and cultured in DMEM.[5], [25]
To evaluate the cytotoxicity profile of the potential EGFR inhibitors (compounds) against TNBC cell lines—MDA‐MB‐231, MDA‐MB‐468, and control cell line HEK293, cells were seeded at a cell density of 5 × 10^3 cells/well in complete medium onto 96‐well plates. Here, the non‐tumoral human embryonic kidney (HEK293) epithelial cells have been utilized as a control cell line to compare the IC50 values of the compounds between cancerous and non‐cancerous cell lines with a big therapeutic window. The use of HEK293 cells as compared to other non‐cancerous cell lines are easy to maintain in culture and the results obtained from HEK293 are highly reproducible and consistent.[27] Briefly, the cells were incubated at 37°C for 12 h to attain morphology. After 12 h, cells were serum starved by replacing the complete media with media containing 2% FBS to synchronize the cells. Post‐12 h of synchronization, cells were treated with an increasing concentration (0.1, 1, 10, 100 μM) of all the compounds (1a, 1b, 1c, 1d, 1e, 1f, 1g, 1h, 1i, 1j, 1k). Separately, TNBC cells were treated with increasing concentration (0.01, 0.1, 1 μM) of Doxorubicin (Sigma‐Aldrich, St Louis, MO, USA) in presence of the selected compounds (1c, 1e, 1g, 1h, 1j, and 1k) at 5 μM concentration or combination of selected compounds (1c, 1e, 1g, 1h, 1j, and 1k) at increasing concentration (1, 2.5, 5, 10 μM) in presence of Doxorubicin (0.01 μM) for 48 h. In addition, the CD24^+‐breast cancer cells and CD24^−/CD44^+‐breast CSC populations, being sorted by Magnetic Activated Cell Sorting (MACS) from MDA‐MB‐231 cells as described previously,[6] were also treated with increasing concentrations of Doxorubicin (0.01–1 μM), in the presence or absence of 1e (10–30 μM), or PD153035 (10 μM) (Sigma‐Aldrich, St Louis, MO, USA). MTT assay was performed to evaluate the cytotoxicity of these compounds against the TNBC cell lines, and the sorted populations as described previously.[6] All the experiments were performed thrice and the IC50 values of the compounds and Doxorubicin were calculated using GraphPad Prism software version 9 (San Diego, CA, USA). Similarly, the percent inhibition of the sorted cell populations by chemotherapeutic drug, doxorubicin in the absence/presence of potent compound 1e or standard EGFR inhibitor, PD153035 was evaluated utilizing GraphPad Prism Version 9 (San Diego, CA, USA).

[2] = test system: CD44, p‐EGFR, p‐JNK, p‐p38 in tumor tissue; assay: Immunohistochemical analysis of tumor tissue (colocalization with GFP, Pearson's correlation coefficient); format: in vivo, C57BL/6 mice
Method: Animal studies have been carried out with the prior approval of the Institutional Animal Ethics Committee (IICT/IAEC/025/2023). C57BL/6 female mice of age 6–8 weeks (N = 35) were initially immunosuppressed with cyclophosphamide (50 mg/kg of body weight, i.p) on alternate days for 2 weeks. For generating a preclinical orthotopic xenograft tumor model, 2 × 10^6 GFP expressing sorted stable CD24^+‐breast cancer cells and CD24^−/CD44^+‐breast CSCs were orthotopically xeno‐transplanted subcutaneously at the fourth mammary fat pad of immune‐suppressed mice (n = 5/group). Subsequently, intratumoral administration of Doxorubicin at a low dose (2.5 mg/kg of body weight), high dose (10 mg/kg of body weight), and/or combinatorial treatment of the potent EGFR inhibitor, compound 1e (50 mg/kg of body weight) or the commercial EGFR inhibitor, PD153035 (50 mg/kg of body weight) with a low dose of doxorubicin was performed to the palpable tumors of breast CSCs at day‐3 post‐transplantation.
Immunohistochemical analysis was performed by immunostaining the tissue serial sections with primary antibodies against GFP, CD44, p‐EGFR, p‐JNK, and p‐p38 (CST, USA) followed by alexafluor‐488/555 conjugated secondary antibodies (R&D systems, USA) and mounting medium containing DAPI.[28], [29] Images were captured using a confocal microscope (Olympus FV10i, Tokyo, Japan). Pearson's correlation coefficient was utilized to determine the co‐localization of GFP/CD44, GFP/p‐EGFR, GFP/p‐JNK, and GFP/p‐p38 (Table. ST3).

`c1cncc(C(c2c[nH]c3ccccc23)c2c[nH]c3ccccc23)c1` [1e] was tested, and the BAX protein level ([1]; 48 h) was “elevation”, the BAX/BCL2 ratio ([1]; 48 h) was “elevation” and the BCL2 levels ([1]; 48 h) was “marked decrease”. The “doxorubicin‐induced expression of Cyt‐C” value ([1]; vs the other compounds) was “comparatively higher levels”, the IC50 (HEK‐293) was 278 ± 13.5 µM and the “colocalization of GFP/p‐EGFR” value ([2]; with doxorubicin low dose, CSC xenograft tumor tissue) was “decreased significantly”. The “activation of apoptotic signaling mediators (GFP/p‐JNK, GFP/p‐p38 colocalization)” value ([2]; with low dose doxorubicin, comparable with high dose doxorubicin alone) was “increased activation” and the “colocalization of GFP and CD44 (Pearson's correlation coefficient)” value ([2]; with low dose of doxorubicin, CSC xenograft tumor tissue) was “comparable to the high dose of doxorubicin treated group”.
